# According to PubChem BioAssay (NCI):
#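 Assay format: 96-well plates, 48-hour exposure. Abbreviation: GI50, concentration required for 50% inhibition of growth. TGI marks complete inhibition of growth.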
# How the values were obtained:
# Assay in all cases: NCI-60 cell line screen, 48 h
# SNB-19 CNS = system: SNB-19 CNS
# SW-620 colon = system: SW-620 colon
# HCC-2998 colon = system: HCC-2998 colon
# HT29 colon = system: HT29 colon
# KM12 colon = system: KM12 colon
# IGROV1 ovarian = system: IGROV1 ovarian
# CCRF-CEM leukemia = system: CCRF-CEM leukemia
# MCF7 breast = system: MCF7 breast
# SK-OV-3 ovarian = system: SK-OV-3 ovarian
# 786-0 renal = system: 786-0 renal
# OVCAR-5 ovarian = system: OVCAR-5 ovarian
# UO-31 renal = system: UO-31 renal
# RPMI-8226 leukemia = system: RPMI-8226 leukemia
# HS 578T breast = system: HS 578T breast
# ACHN renal = system: ACHN renal
# M14 melanoma = system: M14 melanoma
# A549 NSCLC = system: A549 NSCLC
# NCI-H460 lung = system: NCI-H460 lung
# SK-MEL-28 melanoma = system: SK-MEL-28 melanoma
# OVCAR-3 ovarian = system: OVCAR-3 ovarian
# U251 CNS = system: U251 CNS
# OVCAR-8 ovarian = system: OVCAR-8 ovarian
# COLO 205 colon = system: COLO 205 colon
# NCI-H226 lung = system: NCI-H226 lung
# A498 renal = system: A498 renal
# T-47D breast = system: T-47D breast
# SF-295 CNS = system: SF-295 CNS
# MDA-MB-435 = system: MDA-MB-435
# HOP-92 NSCLC = system: HOP-92 NSCLC
# CAKI-1 renal = system: CAKI-1 renal
# HCT-15 colon = system: HCT-15 colon
# SF-539 CNS = system: SF-539 CNS
# K-562 leukemia = system: K-562 leukemia
# SR leukemia = system: SR leukemia
# OVCAR-4 ovarian = system: OVCAR-4 ovarian
# UACC-257 melanoma = system: UACC-257 melanoma
# SK-MEL-2 melanoma = system: SK-MEL-2 melanoma
# SK-MEL-5 melanoma = system: SK-MEL-5 melanoma
# SNB-75 CNS = system: SNB-75 CNS
# RXF 393 renal = system: RXF 393 renal
# NCI-H522 lung = system: NCI-H522 lung
# MDA-MB-231 breast = system: MDA-MB-231 breast
# DU-145 prostate = system: DU-145 prostate
# TK-10 renal = system: TK-10 renal
# SN12C renal = system: SN12C renal
# SF-268 CNS = system: SF-268 CNS
# MALME-3M melanoma = system: MALME-3M melanoma
# HCT-116 colon = system: HCT-116 colon
# NCI/ADR-RES ovarian = system: NCI/ADR-RES ovarian
# LOX IMVI melanoma = system: LOX IMVI melanoma
# BT-549 breast = system: BT-549 breast
# HOP-62 NSCLC = system: HOP-62 NSCLC
# MOLT-4 leukemia = system: MOLT-4 leukemia
smiles,measurement,setting,value
C[CH2][Pb]([CH2]C)([CH2]C)[O]C(=O)COc1ccccc1,GI50,SNB-19 CNS,2360 nM
same,TGI,SNB-19 CNS,11300 nM
same,GI50,SW-620 colon,641 nM
same,TGI,SW-620 colon,2470 nM
same,GI50,HCC-2998 colon,1650 nM
same,TGI,HCC-2998 colon,3850 nM
same,GI50,HT29 colon,1740 nM
same,TGI,HT29 colon,4610 nM
same,GI50,KM12 colon,1510 nM
same,TGI,KM12 colon,5840 nM
same,GI50,IGROV1 ovarian,1640 nM
same,TGI,IGROV1 ovarian,6520 nM
same,GI50,CCRF-CEM leukemia,1230 nM
same,TGI,CCRF-CEM leukemia,4860 nM
same,GI50,MCF7 breast,1770 nM
same,TGI,MCF7 breast,9340 nM
same,GI50,SK-OV-3 ovarian,2080 nM
same,TGI,SK-OV-3 ovarian,6100 nM
same,GI50,786-0 renal,2130 nM
same,TGI,786-0 renal,5720 nM
same,GI50,OVCAR-5 ovarian,1740 nM
same,TGI,OVCAR-5 ovarian,4610 nM
same,GI50,UO-31 renal,1050 nM
same,TGI,UO-31 renal,3700 nM
same,GI50,RPMI-8226 leukemia,1030 nM
same,TGI,RPMI-8226 leukemia,3120 nM
same,GI50,HS 578T breast,1530 nM
same,TGI,HS 578T breast,5200 nM
same,GI50,ACHN renal,2510 nM
same,TGI,ACHN renal,11300 nM
same,GI50,M14 melanoma,1390 nM
same,TGI,M14 melanoma,6670 nM
same,GI50,A549 NSCLC,1820 nM
same,TGI,A549 NSCLC,5650 nM
same,GI50,NCI-H460 lung,2210 nM
same,TGI,NCI-H460 lung,5940 nM
same,GI50,SK-MEL-28 melanoma,784 nM
same,TGI,SK-MEL-28 melanoma,11000 nM
same,GI50,OVCAR-3 ovarian,1700 nM
same,TGI,OVCAR-3 ovarian,5270 nM
same,GI50,U251 CNS,1740 nM
same,TGI,U251 CNS,3890 nM
same,GI50,OVCAR-8 ovarian,1760 nM
same,TGI,OVCAR-8 ovarian,5680 nM
same,GI50,COLO 205 colon,1960 nM
same,TGI,COLO 205 colon,4510 nM
same,GI50,NCI-H226 lung,1830 nM
same,TGI,NCI-H226 lung,6040 nM
same,GI50,A498 renal,1750 nM
same,TGI,A498 renal,6610 nM
same,GI50,T-47D breast,757 nM
same,TGI,T-47D breast,8820 nM
same,GI50,SF-295 CNS,1510 nM
same,TGI,SF-295 CNS,3130 nM
same,GI50,MDA-MB-435,214 nM
same,TGI,MDA-MB-435,502 nM
same,GI50,HOP-92 NSCLC,390 nM
same,TGI,HOP-92 NSCLC,4100 nM
same,GI50,CAKI-1 renal,1950 nM
same,TGI,CAKI-1 renal,6180 nM
same,GI50,HCT-15 colon,1980 nM
same,TGI,HCT-15 colon,11600 nM
same,GI50,SF-539 CNS,1810 nM
same,TGI,SF-539 CNS,4630 nM
same,GI50,K-562 leukemia,1470 nM
same,TGI,K-562 leukemia,6640 nM
same,GI50,SR leukemia,595 nM
same,TGI,SR leukemia,3880 nM
same,GI50,OVCAR-4 ovarian,949 nM
same,TGI,OVCAR-4 ovarian,4960 nM
same,GI50,UACC-257 melanoma,557 nM
same,TGI,UACC-257 melanoma,4750 nM
same,GI50,SK-MEL-2 melanoma,382 nM
same,TGI,SK-MEL-2 melanoma,1730 nM
same,GI50,SK-MEL-5 melanoma,1190 nM
same,TGI,SK-MEL-5 melanoma,2560 nM
same,GI50,SNB-75 CNS,1240 nM
same,TGI,SNB-75 CNS,11300 nM
same,GI50,RXF 393 renal,1050 nM
same,TGI,RXF 393 renal,3260 nM
same,GI50,NCI-H522 lung,562 nM
same,TGI,NCI-H522 lung,2110 nM
same,GI50,MDA-MB-231 breast,1630 nM
same,TGI,MDA-MB-231 breast,4840 nM
same,GI50,DU-145 prostate,2430 nM
same,TGI,DU-145 prostate,10700 nM
same,GI50,TK-10 renal,1630 nM
same,TGI,TK-10 renal,5210 nM
same,GI50,SN12C renal,2390 nM
same,TGI,SN12C renal,9610 nM
same,GI50,SF-268 CNS,1670 nM
same,TGI,SF-268 CNS,4540 nM
same,GI50,MALME-3M melanoma,441 nM
same,TGI,MALME-3M melanoma,7110 nM
same,GI50,HCT-116 colon,1440 nM
same,TGI,HCT-116 colon,2900 nM
same,GI50,NCI/ADR-RES ovarian,1970 nM
same,TGI,NCI/ADR-RES ovarian,9240 nM
same,GI50,LOX IMVI melanoma,1400 nM
same,TGI,LOX IMVI melanoma,3220 nM
same,GI50,BT-549 breast,1780 nM
same,TGI,BT-549 breast,6400 nM
same,GI50,HOP-62 NSCLC,1640 nM
same,TGI,HOP-62 NSCLC,3760 nM
same,GI50,MOLT-4 leukemia,1950 nM
same,TGI,MOLT-4 leukemia,4630 nM
